One compound from patent US11793222B2, “Solutions and dispersions of amide compounds” (Firmenich SA, priority 2016, dated 2023) can be followed below.

Data set [1] can be described thus: Dissolution kinetics in water at 60° C., followed by UV/Vis spectroscopy (absorbance at 310 nm). The data set is classed as physicochemical. As for the experimental part:
The dissolution process was followed on-line by monitoring the UV signal of dissolved (E)-3-(3,4-dimethoxyphenyl)-N-(4-methoxyphenethyl)acrylamide with UV/Vis spectroscopy (measuring absorbance at 310 nm). The dissolution process yielded 50% of the target concentration of 20 ppm of (E)-3-(3,4-dimethoxyphenyl)-N-(4-methoxyphenethyl)acrylamide (10 ppm) after 1.5 minutes, and 95% (19 ppm) after 17 minutes.
20 mg of (E)-3-(3,4-dimethoxyphenyl)-N-(4-methoxyphenethyl)acrylamide were dispersed in 1 L of water at 60° C. The dissolution process yielded 50% of the target concentration of 20 ppm (10 ppm) after 78 minutes (factor 50 slower compared to example 1). 95% (19 ppm) of the target concentration could not be achieved after 6 hours. The concentration of dissolved (E)-3-(3,4-dimethoxyphenyl)-N-(4-methoxyphenethyl)acrylamide after 6 hours was 15 ppm (75% of target).
1.8 g of (E)-3-(3,4-dimethoxyphenyl)-N-(4-methoxyphenethyl)acrylamide and 1.8 g betaine were mixed with 116 g of a mixture of ethanol and water (50:50 w/w). The dispersion was heated to 60° C. until complete dissolution of the solid material. The solution was kept at 60° C., spray dried, and a fine, white powder was obtained. […] The dissolution process yielded 50% of the target concentration of 20 ppm of (E)-3-(3,4-dimethoxyphenyl)-N-(4-methoxyphenethyl)acrylamide (10 ppm) after 2.5 minutes, and 95% (19 ppm) after 29 minutes.

Data set [2] has as its system trained panelists. Description: Evaluation of the umami effect in hot water by trained panelists. The format is in vivo. The note with it: 20 ppm compound or 40 ppm solid dispersion (50:50 w/w), 4 trained panelists, blind, after 5 minutes. As for the experimental part:
(§1) The solutions were presented to 4 trained panelists on a blind test basis after 5 minutes. They were asked to rate the samples for the umami taste intensity from 0 to 10 (0 denoted no umami effect, and 10 denoted very strong umami taste). The sample according to the invention was rated higher in umami intensity (5.0) than the comparative sample (3.8).

For data set [3], the system named is trained panelists. Briefly: Evaluation of the umami effect in cold water by trained panelists. The data set is classed as in vivo. To be noted: cold water (room temperature); 20 ppm compound or 40 ppm solid dispersion (50:50 w/w); 4 trained panelists, blind, after 5 minutes. As for the experimental part:
as §1
The solutions were presented to 4 trained panelists on a blind test basis after 5 minutes. The sample according to the invention was rated higher in umami intensity (3.4) than the comparative sample (2.5).

Data set [4] deals with trained panelists. Description: Evaluation of the umami effect in hot chicken bouillon by trained panelists. The format is in vivo. To be noted: 20 ppm compound or 40 ppm solid dispersion (50:50 w/w), 4 trained panelists, blind, after 5 minutes. As for the experimental part:
as §1
The bouillons were presented to 4 trained panelists on a blind test basis after 5 minutes. The sample according to the invention was rated higher in umami intensity (6.5) than the comparative sample (5.5).

SMILES strings stand for the structures.

On to `COc1ccc(CCNC(=O)/C=C/c2ccc(OC)c(OC)c2)cc1` [(E)-3-(3,4-dimethoxyphenyl)-N-(4-methoxyphenethyl)acrylamide], for which the “time until 95% (19 ppm) of the target concentration (could not be achieved)” value in data set [1] (20 mg in 1 L of water at 60° C.) was over 6 h. Besides, the “concentration of dissolved compound after 6 hours” value in data set [1] (20 mg in 1 L of water at 60° C., after 6 hours) is reported as 15 ppm. Moreover, in data set [1] (20 mg in 1 L of water at 60° C., after 6 hours, target 20 ppm), the “dissolved compound after 6 hours as % of target” value was 75%. Besides, the “time until dissolution yielded 50% of the target concentration of 20 ppm (10 ppm)” value in data set [1] (1 L of water at 60° C., target 20 ppm of the amide) amounted to 78 min. For the same compound, in data set [1] (water at 60° C.), the “factor slower compared to example 1 (time to 50% of target concentration)” value was 50. For the same compound, in the data set on trained panelists [2], the “umami taste intensity rating from 0 to 10” value is reported as 3.8. The umami intensity rating in the data set on trained panelists [3] was 2.5; with trained panelists [4] it was 5.5.
